The test system of this assay is BDF1 mice, L1210 leukemia sc, survival T/C. Description: NCI In Vivo Anticancer Drug Screen. Data for tumor model L1210 Leukemia (subcutaneous) in B6D2F1 (BDF1) mice. The note with it: higher = longer survival. In short, it runs like this:
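Tumors were transplanted into mice, the animals were treated with compound, survival or tumor size was then measured, and treated values were divided by vehicle-control values.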

Setting [1] is: endpoint: median survival time, dose: 0.65 mg/kg/injection, schedule: Q01DX Z (sc), vehicle: methylcellulose (MC).
[2] abbreviates: endpoint: median survival time, dose: 39.0 mg/kg/injection, schedule: Q01DX Z (sc), vehicle: methylcellulose (MC).
Setting [3] is: endpoint: median survival time, dose: 65.0 mg/kg/injection, schedule: Q01DX Z (sc), vehicle: carboxymethylcellulose (CMC).
Where [4] appears, read: endpoint: median survival time, dose: 108.0 mg/kg/injection, schedule: Q01DX Z (sc), vehicle: carboxymethylcellulose (CMC).
Where [5] appears, read: endpoint: median survival time, dose: 65.0 mg/kg/injection, schedule: Q01DX Z (sc), vehicle: saline.
[6] abbreviates: endpoint: median survival time, dose: 65.0 mg/kg/injection, schedule: Q01DX Z (sc), vehicle: methylcellulose (MC).
Setting [7] is: endpoint: median survival time, dose: 108.0 mg/kg/injection, schedule: Q01DX Z (sc), vehicle: methylcellulose (MC).
Where [8] appears, read: endpoint: median survival time, dose: 180.0 mg/kg/injection, schedule: Q01DX Z (sc), vehicle: methylcellulose (MC).

Values joined by “and” are separate entries in the source; they are usually repeats but may differ in a detail not shown here. Identical values can stand only once. Toxic doses and inconclusive results are not listed.

As to `O=c1[nH]cc(N(CCCl)CCCl)c(=O)[nH]1`, the T/C was 100 % of control (endpoint: median survival time, dose: 0.23 mg/kg/injection, schedule: Q01DX Z (sc), vehicle: other); 100 % of control (endpoint: median survival time, dose: 0.39 mg/kg/injection, schedule: Q01DX Z (sc), vehicle: other); 100 % of control (endpoint: median survival time, dose: 0.65 mg/kg/injection, schedule: Q01DX Z (sc), vehicle: other); 100 % of control (endpoint: median survival time, dose: 1.08 mg/kg/injection, schedule: Q01DX Z (sc), vehicle: other); 105 % of control and 110 % of control (endpoint: median survival time, dose: 1.8 mg/kg/injection, schedule: Q01DX Z (sc), vehicle: other); 110 % of control and 115 % of control (endpoint: median survival time, dose: 3.0 mg/kg/injection, schedule: Q01DX Z (sc), vehicle: other). For the same molecule, the T/C by setting is: (endpoint: median survival time, dose: 5.0 mg/kg/injection, schedule: Q01DX Z (sc), vehicle: other) 150 % of control and 160 % of control; (endpoint: median survival time, dose: 8.4 mg/kg/injection, schedule: Q01DX Z (sc), vehicle: other) 100 % of control and 120 % of control; (endpoint: median survival time, dose: 14.0 mg/kg/injection, schedule: Q01DX Z (sc), vehicle: other) 120 % of control.
For `COc1ccc2nc3cc(Cl)ccc3c(NCCN(CCCl)CCCl)c2c1`, the T/C runs as follows: under setting [1], 105 % of control; under setting [2], 100 % of control.
For `Cc1cccc(C)c1NC(=O)N(CCCl)N=O`, the T/C is, setting by setting: (endpoint: median survival time, dose: 8.4 mg/kg/injection, schedule: Q01DX Z (sc), vehicle: carboxymethylcellulose (CMC)) 106 % of control; (endpoint: median survival time, dose: 23.0 mg/kg/injection, schedule: Q01DX Z (sc), vehicle: carboxymethylcellulose (CMC)) 181 % of control; (endpoint: median survival time, dose: 39.0 mg/kg/injection, schedule: Q01DX Z (sc), vehicle: carboxymethylcellulose (CMC)) 287 % of control; under setting [3], 337 % of control; under setting [4], 162 % of control.
`N=[N+]=CC(=O)OCC(N)C(=O)O` (centres undefined): the T/C was 105 % of control (endpoint: median survival time, dose: 3.0 mg/kg/injection, schedule: Q01DX Z (sc), vehicle: saline); 110 % of control (endpoint: median survival time, dose: 4.0 mg/kg/injection, schedule: Q01DX Z (sc), vehicle: water); 110 % of control (endpoint: median survival time, dose: 5.0 mg/kg/injection, schedule: Q01DX Z (sc), vehicle: saline); 110 % of control (endpoint: median survival time, dose: 6.72 mg/kg/injection, schedule: Q01DX Z (sc), vehicle: water); 172 % of control (endpoint: median survival time, dose: 8.0 mg/kg/injection, schedule: Q01DX Z (sc), vehicle: water); 100 % of control (endpoint: median survival time, dose: 8.0 mg/kg/injection, schedule: Q02DX Z (sc), vehicle: water). Further, the T/C runs as follows: (endpoint: median survival time, dose: 8.4 mg/kg/injection, schedule: Q01DX Z (sc), vehicle: saline) 110 % of control; (endpoint: median survival time, dose: 11.2 mg/kg/injection, schedule: Q01DX Z (sc), vehicle: water) 110 % of control; (endpoint: median survival time, dose: 14.0 mg/kg/injection, schedule: Q01DX Z (sc), vehicle: saline) 120 % of control; (endpoint: median survival time, dose: 16.0 mg/kg/injection, schedule: Q01DX Z (sc), vehicle: water) 168 % of control; (endpoint: median survival time, dose: 16.0 mg/kg/injection, schedule: Q02DX Z (sc), vehicle: water) 100 % of control; (endpoint: median survival time, dose: 31.1 mg/kg/injection, schedule: Q01DX Z (sc), vehicle: water) 120 % of control. Also, the T/C is 100 % of control (endpoint: median survival time, dose: 32.0 mg/kg/injection, schedule: Q02DX Z (sc), vehicle: water); 118 % of control (endpoint: median survival time, dose: 64.0 mg/kg/injection, schedule: Q01DX Z (sc), vehicle: water); 100 % of control under setting [5]; 110 % of control (endpoint: median survival time, dose: 86.1 mg/kg/injection, schedule: Q01DX Z (sc), vehicle: water); 100 % of control (endpoint: median survival time, dose: 128.0 mg/kg/injection, schedule: Q02DX Z (sc), vehicle: water).
For `Nc1ncc(N)c(N)n1`, the T/C is 100 % of control under setting [2]; 100 % of control under setting [3]; 100 % of control under setting [6]; 107 % of control under setting [4]; 100 % of control under setting [7]; 100 % of control (endpoint: median survival time, dose: 180.0 mg/kg/injection, schedule: Q01DX Z (sc), vehicle: carboxymethylcellulose (CMC)). Also, the T/C under setting [8] was 100 % of control; the T/C (endpoint: median survival time, dose: 300.0 mg/kg/injection, schedule: Q01DX Z (sc), vehicle: carboxymethylcellulose (CMC)) is 100 % of control; the T/C (endpoint: median survival time, dose: 300.0 mg/kg/injection, schedule: Q01DX Z (sc), vehicle: methylcellulose (MC)) is 100 % of control; the T/C (endpoint: median survival time, dose: 500.0 mg/kg/injection, schedule: Q01DX Z (sc), vehicle: carboxymethylcellulose (CMC)) was 100 % of control.
On to `O=c1[nH]c(=O)n(C2OC(CO)C(O)C2O)cc1I` (centres undefined), for which the T/C was 100 % of control (endpoint: median survival time, dose: 39.0 mg/kg/injection, schedule: Q01DX Z (sc), vehicle: saline); 100 % of control under setting [5]; 100 % of control (endpoint: median survival time, dose: 108.0 mg/kg/injection, schedule: Q01DX Z (sc), vehicle: saline); 94 % of control and 100 % of control (endpoint: median survival time, dose: 180.0 mg/kg/injection, schedule: Q01DX Z (sc), vehicle: saline); 100 % of control (endpoint: median survival time, dose: 300.0 mg/kg/injection, schedule: Q01DX Z (sc), vehicle: saline); 100 % of control and 105 % of control (endpoint: median survival time, dose: 500.0 mg/kg/injection, schedule: Q01DX Z (sc), vehicle: saline). For the same molecule, the T/C runs as follows: (endpoint: median survival time, dose: 833.0 mg/kg/injection, schedule: Q01DX Z (sc), vehicle: saline) 94 % of control; (endpoint: median survival time, dose: 1388.0 mg/kg/injection, schedule: Q01DX Z (sc), vehicle: saline) 94 % of control.
For the molecule `Cn1c(O)c(N=NC(N)=S)c2ccccc21`, the T/C was 100 % of control (endpoint: median survival time, dose: 5.0 mg/kg/injection, schedule: Q01DX Z (sc), vehicle: methylcellulose (MC)); 100 % of control (endpoint: median survival time, dose: 8.4 mg/kg/injection, schedule: Q01DX Z (sc), vehicle: methylcellulose (MC)); 100 % of control (endpoint: median survival time, dose: 14.0 mg/kg/injection, schedule: Q01DX Z (sc), vehicle: methylcellulose (MC)); 100 % of control (endpoint: median survival time, dose: 23.0 mg/kg/injection, schedule: Q01DX Z (sc), vehicle: methylcellulose (MC)); 100 % of control under setting [2]; 100 % of control under setting [6]. The T/C is, setting by setting: under setting [7], 100 % of control; under setting [8], 100 % of control.
Regarding `COc1ccc2c(Nc3ccc(NS(C)(=O)=O)cc3)c3ccccc3nc2c1`, the T/C (endpoint: mean survival time, dose: 6.25 mg/kg/injection, schedule: Q01DX009 (sc), vehicle: saline) was 109 % of control.
Turning to `CC1CCC(NC(=O)N(CCCl)N=O)CC1` (centres undefined), the T/C (endpoint: median survival time, dose: 5.0 mg/kg/injection, schedule: Q03HX008 (sc), vehicle: saline) is 322 % of control and 333 % of control; the T/C (endpoint: median survival time, dose: 6.25 mg/kg/injection, schedule: Q04DX008 (sc), vehicle: saline) is 681 % of control and 690 % of control; the T/C (endpoint: median survival time, dose: 12.5 mg/kg/injection, schedule: Q01DX001 (sc), vehicle: saline) was 120 % of control; the T/C (endpoint: median survival time, dose: 12.5 mg/kg/injection, schedule: Q04DX008 (sc), vehicle: saline) is 370 % of control and 403 % of control; the T/C (endpoint: median survival time, dose: 25.0 mg/kg/injection, schedule: Q04DX008 (sc), vehicle: saline) was 119 % of control and 120 % of control; the T/C (endpoint: median survival time, dose: 50.0 mg/kg/injection, schedule: Q04DX001 (sc), vehicle: saline) was 215 % of control and 257 % of control. Besides, the T/C (endpoint: median survival time, dose: 50.0 mg/kg/injection, schedule: Q04DX008 (sc), vehicle: saline) is 104 % of control and 105 % of control; the T/C (endpoint: median survival time, dose: 100.0 mg/kg/injection, schedule: Q04DX001 (sc), vehicle: saline) is 230 % of control; the T/C (endpoint: median survival time, dose: 200.0 mg/kg/injection, schedule: Q04DX001 (sc), vehicle: saline) is 120 % of control and 121 % of control; the T/C (endpoint: median survival time, dose: 400.0 mg/kg/injection, schedule: Q04DX001 (sc), vehicle: saline) is 150 % of control and 151 % of control.
In the case of `CCN1C=C/C(=C\C=C/c2cc[n+](CC)c3ccccc23)c2ccccc21`, the T/C is, setting by setting: (endpoint: median survival time, dose: 0.05 mg/kg/injection, schedule: Q01DX Z (sc), vehicle: methylcellulose (MC)) 100 % of control; (endpoint: median survival time, dose: 0.08 mg/kg/injection, schedule: Q01DX Z (sc), vehicle: methylcellulose (MC)) 100 % of control; (endpoint: median survival time, dose: 0.14 mg/kg/injection, schedule: Q01DX Z (sc), vehicle: methylcellulose (MC)) 100 % of control; (endpoint: median survival time, dose: 0.23 mg/kg/injection, schedule: Q01DX Z (sc), vehicle: methylcellulose (MC)) 100 % of control; (endpoint: median survival time, dose: 0.39 mg/kg/injection, schedule: Q01DX Z (sc), vehicle: methylcellulose (MC)) 100 % of control; under setting [1], 100 % of control. Moreover, the T/C reads like this: (endpoint: median survival time, dose: 1.08 mg/kg/injection, schedule: Q01DX Z (sc), vehicle: methylcellulose (MC)) 100 % of control; (endpoint: median survival time, dose: 1.8 mg/kg/injection, schedule: Q01DX Z (sc), vehicle: methylcellulose (MC)) 111 % of control; (endpoint: median survival time, dose: 3.0 mg/kg/injection, schedule: Q01DX Z (sc), vehicle: methylcellulose (MC)) 105 % of control.

Values taken from PubChem BioAssay AID250 (DTP/NCI, 2004).
